Results reported in patent publication US20150158914A1, “PEPTIDES, CONSTRUCTS AND USES THEREFOR” (priority 2010, published 2015).
Entries after “also recorded” stand apart in the source; their conditions may differ. Ends that are not written are not given here. * marks the point of attachment. FITC = O=C1OC2(c3ccc(O)cc3Oc3cc(O)ccc32)c2ccc(NC(=S)*)cc21

Assays:
[1] = system: Rin-m5f pancreatic islet tumor cell line; test: Peptide uptake by other cell lines; format: cell-based, rat; conditions: 3 h
Experimental: The cells were then incubated overnight at 37° and 5% CO2, and then washed thrice with media without FCS. The X-protein peptide in 250 μl of appropriate media without FCS was added to the cells at a final concentration of 10 μM, and the slides incubated for 3 h at 37° C. and 5% CO2. The cells were washed with PBS, fixed with 4% formaldahyde in PBS for 30 min, and washed thrice with PBS. […] The slides were dried overnight in the dark, and examined by microscopy by using a Nikon E600 fluorescent microscope. Photos were taken using Nikon ACT-1 software. For further examination, slides were then examined by confocal microscopy using a Leica TCS-SP2 confocal microscope.
The X-protein cell-permeable peptide aa 16-22 was tested for its ability to be taken up by other mammalian cell lines including the human C32 melanoma, DU145 prostate carcinoma, TK1 T cell lymphoma, H441 lung carcinoma, Rin-m5f rat pancreatic islet tumor and Cos-1/7 green monkey kidney cell lines. TK1 cells are suspension cells whereas all other cell lines are adherent cells. Cells were incubated with the fluoresceinated X-protein cell-permeable peptide 16-22 for 3 h in medium appropriate for that cell line in the absence of FCS. The HepG2 cell line was used as a positive control. The X-protein peptide was able enter all adherent cell lines regardless of type or source of the cell (FIGS. 22 and 23).

[2] = system: nonadherent peripheral blood mononuclear cells; test: Peptide uptake by nonadherent buffy coat cells; format: cell-based, human; conditions: 3 h, RPMI without FCS
Experimental: To determine whether this was a general feature of nonadherent cells, the ability of the peptide to enter non-adherent human peripheral blood mononuclear cells was examined. A buffy coat containing monocytes, lymphocytes, and platelets was isolated from 10 ml of human blood and incubated in 8-chamber slides for 3 h with the cell-permeable peptide aa 16-22 in RPMI medium without FCS.

X-protein = test: Non-reducing SDS-PAGE/Western blot of X-protein tertiary structure in HepG2 transfectants; format: cell-based, hepatitis B virus; conditions: peptide added thrice over 48 h, non-reducing conditions
Experimental: The inventors investigated how the oligomerization domain peptide (aa 16-35) antagonized X-protein-mediated function. The aim was to determine whether the peptide disrupted the tertiary structure of the X-protein. HepG2 cells were transfected with either the pCDNA3.1-HBX, pCDNA3-HBX Myc or pCDNA3-GFP plasmids and were treated thrice over 48 h with the oligomerization domain peptide (aa 16-35). Control transfectants were not treated with peptide. The nuclear subfraction was resolved by SDS-PAGE using non-reducing loading buffer to keep the disulphide bonding of the X-protein intact. The proteins were transferred onto a PVDF membrane, and probed with a mouse antihuman X-protein primary antibody, followed by a secondary goat anti-mouse HRP-conjugated antibody. […] Transfectants not treated with peptide expressed higher order forms of the X-protein, including the dimeric form at ˜34 kDa, and apparently even higher order structures (FIG. 11). In contrast, cells transfected with pCDNA3.1-HBX and pCDNA3-HBX Myc and treated with the oligomerization domain peptide expressed monomeric forms at ˜17 kDa and ˜21 kDa, respectively.

Substance	uptake of the peptide, cells positive ([1]; Rin-m5f, no FCS) [% cells positive]	entry into cells ([1]; Rinm5f)	uptake by nonadherent buffy coat cells ([2]; listed as X-protein cell-permeable peptide 16-22)	uptake by nonadherent buffy coat cells ([2]; listed as cell-permeable peptide aa 16-22)	overall level of the X-protein (X-protein)	tertiary structure of the X-protein (dimeric and higher order forms) (X-protein; listed as oligomerization domain peptide (aa 16-35))
FITC-LCLRPVG ({FITC}-LCLRPVG) [Peptide 16-22]	60 to 70	taken up less efficiently	unable to enter	did not take up the peptide		
FITC-Acp-LCLRPVGAESRGRPVSGPFG [Peptide 16-35]					did not decrease the overall level of the X-protein	Disruption of the tertiary structure of the X-protein; also recorded: disrupts the tertiary structure of the X-protein, preventing dimerization and the formation of higher order structures
